Assay results: a melting point compilation (Tetko et al.; mined from patent text by program, amines drawn as free bases though some values may be those of a salt)

| SMILES | melting point [°C] |
| --- | --- |
| NC(=NO)c1ccc2c(c1)nc(-c1ccc(OCc3ccccc3)cc1)n2C1CCCC1 | 225 to 226 |
| CC(CCCO)C(c1cc(F)ccc1F)S(=O)(=O)c1ccc(Cl)cc1 (stereo not given) | 67 to 69 |
| COC(=O)C(F)=CC1C(C(=O)O)C1(C)C (stereo not given) | 89 |
| Nc1cc(OCc2ccccc2)c(C(=O)O)cc1Cl | 182 to 184 |
| COc1ccc(C2CC=CCC2NC(=O)c2ccc(OCC3CC3)c(OCC3CC3)c2)cc1OC (stereo not given) | 152 to 154 |
| CCOC(=O)c1c[nH]c2c(OC)csc2c1=O | 244 to 247 |
| COC(=O)C(C)(C)CC(=O)CCc1ccc(Cl)cc1 | 52 to 54 |
| O=c1nc(-c2ccccc2C(F)(F)F)sc2ccccc12 | 140 |
| O=C1c2cccnc2N(N2CCCCCC2)C2=NCCN12 | 217 to 219 |
| C=CCN1CCn2c1nc1ccc(Cl)cc1c2=O | 91 to 93 |
| CC(Oc1ncn(-c2cccc(C(F)(F)F)c2)n1)C(N)=O (stereo not given) | 147 to 149 |
| O=C(O)C1Cc2cccc(-c3ccccc3)c2C1 (stereo not given) | 97 to 102 |
| O=C(c1c(F)cccc1F)N1CS(=O)(=O)CN(c2ccc(Cl)cc2)C1=O | 274 to 275 |
| CCCCc1ccc(NC(=O)c2ccc(N)cc2)cc1 | 138 |
| CC1OC(c2cc(-n3c(=O)cc(C(F)(F)F)n(C)c3=O)ccc2Cl)OC1C (stereo not given) | 149 to 151 |
| COc1ccc(CNC(=O)C(=O)NCCc2ccccn2)c(C)c1 | 133 to 134 |
| COc1ccc2[nH]c3c(c2c1)C[C@@]1(C)C(=O)N(CCN2CCN(C)CC2)C(=O)N1[C@@H]3c1cccc(O)c1 (racemic) | 224 to 227 |
| CCc1c(C(=O)OC)[nH]c(=O)c(CC(C)C)[n+]1[O-] | 143 to 146 |
| Cc1cccc(Cl)c1CNc1c(NC(C)(C)C)c(=O)c1=O | 254 to 257 |
| COc1ccc2nc3c(c(-c4ccc(C(F)(F)F)cc4)c2c1)CNC3=O | 305 |
| NCCCC(F)(F)C(F)(F)C(F)(F)C(F)(F)C(F)(F)C(F)(F)C(F)(F)C(F)(F)C(F)(F)C(F)(F)F | 53 to 55 |
| O=CNc1ccc(C=O)cc1[N+](=O)[O-] | 183 to 191 |
| CCN1c2ccccc2NC(=S)c2cccnc21 | 194 to 196 |
| COCc1cccc(CCC(O)c2ccccc2)c1NC(=O)CC1c2ccccc2Oc2ccccc21 (stereo not given) | 144 to 146 |
| CC(C)(C)C(=O)c1ccc(COc2ccccc2)cc1 | 79.5 to 80 |
| COc1ccc2c(c1)C(=O)N(c1ccc3c(ccn3C(C)C)c1)C2 | 144 to 148 |
| COc1cc(C=O)c([N+](=O)[O-])c(OC)c1 | 104 to 105 |

| SMILES | melting point [°C] |
| --- | --- |
| CCc1cn2c(N)c(Cl)cc(C(=O)NCC3CCN(CC4(O)CCOCC4)CC3)c2n1 | 229 |
| Nc1nc2ccccc2c2c1nc(CCC1CCCC1)n2CCOc1ccccc1 | 165 |
| CC(C)(C)[Si](C)(C)OC1CN(c2ccc(N3C[C@H](CO)OC3=O)cc2F)C1 | 183 to 186 |
| Cc1cc(-c2nc3cccnn3c2-c2ccnc(NC(=O)Nc3ccsc3)c2)ccc1F | 234 to 235 |
| N#Cc1ccc2c(c1)-c1ccccc1OP2(=O)O | 240 |
| O=C1NCCc2c(CCc3ccccc3)[nH]c3cccc1c23 | 207 to 208 |
| CC(C)(C)OC(=O)N1CCC=C(C(=O)O)C1 | 198 to 202 |
| Nc1ccc(N2CCCCC2)c(C(=O)O)c1 | 232 to 235 |
| COc1ccc(Cc2nc(C(C)=O)c[nH]2)cc1 | 147 to 148 |
| Nc1ccc(OCC(O)CO)c(O)c1 (stereo not given) | 141 |
| O=C(O)c1cccc(-c2cccc3oc(Cc4cccc(C(F)(F)F)c4)cc23)c1 | 138 to 139 |
| COCc1c(-c2nnc(N)o2)ncc2[nH]c3ccc(OCc4ccccc4)cc3c12 | 290 to 293 |
| CN(CCO)C(=O)Cc1ccccc1Cl | 77 |
| COC(=O)c1ccc(OC)c2c1CCO2 | 68 to 78 |
| CCc1nc2ccccc2n1C1CCN(CCCNc2ccc(F)cc2)CC1 | 121 to 124 |
| O=C(O)c1ccc(C(=O)/C=C/c2ccc(-c3nccs3)cc2)cc1 | 232 to 235 |
| N#Cc1ccc2c(c1)CCC(c1ccccc1F)=C2CCO | 119 |
| CC(=O)Nc1ccc2cccc(Oc3cc(-c4ccc(C(F)(F)F)cc4)ncn3)c2n1 | 204 to 206 |
| NC1=NS(=O)N=C1NCCCOc1cccc(CN2CCCCC2)n1 (stereo not given) | 145 to 147 |
| Clc1ccc2c(c1)C(c1ccccc1Cl)=NCCN2C1=NCCS1 | 123 to 124 |
| COc1cc(-c2nc(N3CCN(C(C)=O)CC3)c3c(C)c(C#N)sc3n2)cc(OC)c1OC | 211 to 213 |
| COc1cccc(C(C#N)=NOS(C)(=O)=O)c1 | 105 to 107 |
| CCCC[C@H]1C(=O)CC[C@@]2(C)CC[C@@H]3C[C@]12OC3(C)C | 64 to 66 |
| O=C(O)COCc1cc(Br)ccc1C(=O)O | 194 to 196 |
| C[Si](C)(C)c1cc(O)c([Si](C)(C)C)cc1O | 162 |
| Cc1cc(C)n(-c2cc(OS(C)(=O)=O)c(Cl)cc2F)n1 | 77.5 to 79 |
| COc1ccc(C(C)N(C)CCCOc2ccc(S(=O)(=O)c3ncsc3-c3ccccc3)cc2)cc1OC (stereo not given) | 162 |

| SMILES | melting point [°C] |
| --- | --- |
| COC(=O)CCCCCCCCCCCNC(=O)NC12CC3CC(CC(C3)C1)C2 | 75 |
| O=C(O)c1scc(Cl)c1C(=O)Nc1ccccc1 | 208 to 210 |
| Cc1noc(NS(=O)(=O)c2ccsc2-c2ccccc2)c1Br | 86 to 89 |
| CCc1cc(-c2ccccc2OC)n2nc(Nc3ccc(N4CCN(C)CC4)cc3)ncc12 | 154 to 156 |
| NC(Cc1cccc2c(Cl)cccc12)=NO | 121 to 125 |
| COc1cn(-c2ccc(-n3c(=O)ccn3C(F)F)cc2F)nc(-c2ccnn2-c2ccccc2)c1=O | 161 to 163 |
| CCCN1C(=O)CN=C(N2CCCCCC2)c2ccccc21 | 115 to 118 |
| C#CCn1c(-c2ccccc2)nn(C(C)(C)C)c1=O | 82 to 83 |
| CCCc1nn(C)c2c(OCCOc3ccc(CC(OCC)C(=O)O)cc3)nc(CC)nc12 (stereo not given) | 140 to 142 |
| N#Cc1cc(Br)c(OC(=O)OCCl)c(Br)c1 | 83 to 85 |
| CN1CCN(C2=Nc3ccccc3Nc3nn(C)nc32)CC1 | 182 to 184 |
| COc1ccc(-n2ncc(-c3ccc(S(C)(=O)=O)cc3)c(-c3ccc(F)cc3)c2=O)cc1F | 97 to 101 |
| CNC(=O)Nc1ccc2c(c1)C(CN1CCC(c3ccc(F)cc3)CC1)CC2 (stereo not given) | 170 to 173 |
| CN1C(=O)CC[C@]2(C)c3ccc(-c4cccc5cnccc45)cc3CC[C@@H]12 | 182 to 184 |
| COc1cc2c(c3c1OC(C)(C)C3)C(c1ccc(N)cc1)=NC(C)(C)C2 | 192 to 195 |
| O=C(OCc1ccccc1)N1CCC(c2nc(CO)c(-c3ccc(Cl)cc3)o2)CC1 | 97 to 99 |
| CCOC1(c2nc3ccccc3s2)C=CC(=O)C=C1 | 59 |
| COC(=O)Cc1ccc(C#N)cc1C | 52 to 54 |
| CCOC(=O)c1cc(OC(C)=O)c(OC(C)=O)c(OC(C)=O)c1 | 76 to 78 |
| CC(C)(C)OC(=O)N1CCc2cc(OCc3ccccc3)c(OCc3ccccc3)cc2C1Cc1ccc([N+](=O)[O-])cc1 (stereo not given) | 150 to 152 |
| COc1ccc2c(c1)cc(CO)n2C | 158 |
| CN(Cc1ccccc1)S(=O)(=O)CC(N)=O | 124 to 127 |
| Nc1ccc(OC(F)F)cc1[N+](=O)[O-] | 68 to 70 |
| COC(=O)c1ccc(SC)cc1N | 57 to 59 |
| CN1CCN(c2cccc3c2C[C@H](NC(=O)c2ccc(N4CCN(CCO)CC4)cc2)CO3)CC1 | 211 to 212 |
| CCCCCCOC(=O)Oc1ccc2c(N3CCN(CCCC(=O)c4ccc(F)cc4)CC3)noc2c1 | 77 to 80 |
| CNC(=S)N1CCC23C=C[C@H](O)CC2Oc2c(OC)cc(Br)c(c23)C1 (stereo not given in full) | 183 to 185 |

| SMILES | melting point [°C] |
| --- | --- |
| CN1CC(c2ccc(S(C)(=O)=O)cc2)=C(c2ccccc2)C1=O | 163 to 165 |
| Nc1ncnc2c1ncn2CCCN1CCC(COc2ccccc2)CC1 | 142 to 144 |
| CC1(C2CCCC2)Cc2cc(NCC(=O)O)c(Cl)c(Cl)c2C1=O (stereo not given) | 199 to 200 |
| O=C(O)Cc1nn(Cc2nc3cc(C(F)(F)F)ccc3s2)c(=O)c2nccnc12 | 192 to 193 |
| O=C1Nc2ccc(F)cc2C1CCCCN1CCN(c2ccccn2)CC1 (stereo not given) | 132 to 134 |
| Cc1noc(NS(=O)(=O)c2ccc(NC(=O)NC3CCCCC3)cc2)c1C | 190 to 195 |
| OC1CCN(CCCc2noc3cc(F)ccc23)CC1 | 88 to 89 |
| O=C(O)COc1cc(Cl)c2c(c1)OCC(c1ccccc1)C2=O (stereo not given) | 171 to 173 |
| O=C(O)Cc1c(C(=O)c2ncc[nH]2)[nH]c2cc(Cl)ccc12 | 252 to 253 |
| CCCc1ccc(OC)c2c(C)c(C(=O)OCC)oc12 | 43 to 46 |
| COC(=O)Cc1ccc(OC)c([N+](=O)[O-])c1 | 101 to 102 |
| CCOc1nn(-c2cccc3c2OC(C)(C)C3)c(=O)o1 | 72 to 74 |
| Nc1ccc(C2CCSCC2)c(F)c1 | 96 to 98 |
| CC(C)(C)NS(=O)(=O)c1cnc(-c2cn(-c3cc(C(F)(F)F)cc(-c4ccc(C(F)(F)F)cc4)n3)cn2)s1 | 236 |
| C#CCOc1ccc(C(=O)C=Cc2c[nH]c3ccccc23)c(O)c1 | 228 to 230 |
| COC=C(C#N)CNC=O | 84 to 86 |
| O=C(Nc1ccc(OC(F)(F)F)cc1)c1c(O)c2ccccc2oc1=O | 194 to 195 |
| NC(=O)C1(c2ccccc2)CCN(CCC2(c3ccc(Cl)c(Cl)c3)CCN(C(=O)c3ccccc3)C2)CC1 (stereo not given) | 87 to 90 |
| CCCc1nc2ccccc2[nH]1 | 160 to 162 |
| O=c1c2cccc3c2n(c(=O)n1CC(O)CO)-c1cc(C(F)(F)F)ccc1S3=O (stereo not given) | 224 to 225 |
| CN(SN1CCOCC1)C(=O)Oc1cccc2c1OC(C)(C)C2 | 75 to 78 |
| O=c1[nH]cccc1Cc1cccc(F)c1 | 110 |
| CCCc1cccc(C2CCCC2)c1 | 90 |
| C=CC[C@H](C(N)=O)[C@@H](CC(C)C)C(=O)NC1N=C(N(C)c2ccccc2)c2ccccc2N(C)C1=O (stereo not given in full) | 267 to 268 |
